Laboratory results: BindingDB's records for doi:10.3109/14756366.2013.776556 (King Fahd University of Petroleum & Minerals, 2014)

Experiments:
[1] = biological target: T1, 5-hydroxytryptamine receptor 1A (Homo sapiens, UniProt P08908); assay: Binding Affinity Assay; conditions: pH 7.4; 37 °C
T1 sequence (P08908 whole entry): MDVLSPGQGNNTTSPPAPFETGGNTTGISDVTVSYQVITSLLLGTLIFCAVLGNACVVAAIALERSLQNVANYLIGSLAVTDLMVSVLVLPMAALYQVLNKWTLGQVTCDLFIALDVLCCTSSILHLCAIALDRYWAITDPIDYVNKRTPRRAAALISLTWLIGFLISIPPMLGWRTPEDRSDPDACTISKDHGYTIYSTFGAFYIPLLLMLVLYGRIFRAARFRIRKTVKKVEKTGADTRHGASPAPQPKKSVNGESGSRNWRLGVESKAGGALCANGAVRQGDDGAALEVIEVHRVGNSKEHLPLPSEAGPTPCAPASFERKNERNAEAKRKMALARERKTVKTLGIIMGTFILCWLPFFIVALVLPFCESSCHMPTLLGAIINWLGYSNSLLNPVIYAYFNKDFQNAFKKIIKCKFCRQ
Protocol: Human-cloned 5-HT1A serotonin receptors stably expressed in HEK293-EBNA cells (Perkin-Elmer, Waltham, MA) were radiolabeled with 1.0nM [3H]-8-OH-DPAT [Fargin et al., J. Biol. Chem., 264:[…]]. Samples containing 32 μg of membrane protein, different concentrations of each compound ranging from 0.1nM to 10 μM were incubated in a final volume of 500 μL of 50mM Tris-HCl pH 7.4, 5mM MgSO4for 120 min at 37 °C. After this incubation time, samples were filtered through Whatman GF/C glass microfiber filters presoaked in polyethylenimine 0.5% for at least 30 min prior to use. The filters were washed twice with 1mL of ice-cold buffer (50mM Tris-HCl, pH 7.4). Nonspecific binding was determined in the presence of 10 μM 5-HT. The radioactivity bound to the filters was measured by liquid scintillation using the LS6500 Multi-Purpose scintillation Counter, Beckman.

D(2) dopamine receptor = D(2) dopamine receptor (Homo sapiens, UniProt P14416); assay: Binding Affinity Assay; conditions: pH 7.4; 25 °C
Chain of D(2) dopamine receptor (P14416 whole entry): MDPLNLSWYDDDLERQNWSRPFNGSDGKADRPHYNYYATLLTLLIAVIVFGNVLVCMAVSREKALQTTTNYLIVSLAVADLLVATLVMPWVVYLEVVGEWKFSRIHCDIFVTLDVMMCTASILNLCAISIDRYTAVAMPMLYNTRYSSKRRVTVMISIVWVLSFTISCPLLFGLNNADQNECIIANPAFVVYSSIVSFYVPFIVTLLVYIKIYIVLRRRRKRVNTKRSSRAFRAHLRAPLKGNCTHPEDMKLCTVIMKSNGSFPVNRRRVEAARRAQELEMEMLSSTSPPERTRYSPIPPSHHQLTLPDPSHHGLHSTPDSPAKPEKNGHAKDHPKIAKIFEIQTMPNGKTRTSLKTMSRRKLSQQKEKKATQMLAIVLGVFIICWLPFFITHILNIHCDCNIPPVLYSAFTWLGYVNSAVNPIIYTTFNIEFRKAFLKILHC
Protocol: The samples were incubated for 120 min at 25 °C, then the incubation was stopped by rapid filtration through Whatman GF/C glass fiber filters (presoaked in 0.5% polyethylenimine for 60 min). The filters were washed three times in 1mL of ice-cold 50mM Tris, 0.9% NaCl, pH 7.4. Nonspecific binding was determined in the presence of 10 μM haloperidol. The radioactivity bound to the filters was measured by liquid scintillation using a LS6500 Multi-Purpose scintillation Counter, Beckman.

| SMILES | Ki [1] [µM] | Ki (D(2) dopamine receptor) [µM] |
| --- | --- | --- |
| O=c1[nH]c2ccc(N3CCN(Cc4ccc(-c5ccc(F)cc5)cc4)CC3)cc2[nH]1 [5-(4-((4'-fluorobiphenyl-4-yl)methyl)piperazin-1-yl)-1H-benzo[d]imidazol-2(3H)-one (6b)] | 0.0272 | 0.0626 |
| O=c1[nH]c2ccc(N3CCN(Cc4cncc(C5=CCCC5)c4)CC3)cc2[nH]1 [5-(4-((5-cyclopentenylpyridin-3-yl)methyl)piperazin-1-yl)-1H-benzo[d]imidazol-2(3H)-one (6f)] | 0.0017 | 0.0031 |
| O=c1[nH]c2ccc(N3CCN(Cc4cccc(C5=CCCC5)c4)CC3)cc2[nH]1 [5-(4-(3-cyclopentenylbenzyl)piperazin-1-yl)-1H-benzo[d]imidazol-2(3H)-one (6e)] | 0.0031 | 0.0104 |
| O=c1[nH]c2ccc(C3CCN(Cc4cncc(-c5ccc(F)cc5)c4)CC3)cc2[nH]1 [5-(1-((5-(4-Fluorophenyl)pyridin-3-yl)methyl)piperidin-4-yl)-1H-benzo[d]imidazol-2(3H)-one (5d)] | 0.00942 | 0.0246 |
| O=c1[nH]c2ccc(C3CCN(Cc4cncc(C5=CCCC5)c4)CC3)cc2[nH]1 [5-(1-((5-cyclopentenylpyridin-3-yl)methyl)piperidin-4-yl)-1Hbenzo[d]imidazol-2(3H)-one (5f)] | 0.0063 | 0.00426 |
| O=c1[nH]c2cccc(N3CCN(Cc4cccc(-c5ccccc5)c4)CC3)c2o1 | 0.00719 |  |
| O=c1[nH]c2ccc(C3CCN(Cc4cccc(C5=CCCC5)c4)CC3)cc2[nH]1 [5-(1-(3-cyclopentenylbenzyl)piperidin-4-yl)-1H-benzo[d]imidazol-2(3H)-one (5e)] | 0.0012 | 0.00812 |
| Fc1ccc(-c2cncc(CN3CCN(c4cccc5c4OCCO5)CC3)c2)cc1 [1-(2,3-dihydro-1,4-benzodioxin-5-yl)-4-[[5-(4-fluorophenyl)pyridin-3-yl]methyl]piperazine] | 0.00864 | 0.0084 |
| O=c1[nH]c2ccc(C3CCN(Cc4cncc(-c5ccccc5)c4)CC3)cc2[nH]1 [5-(1-((5-phenylpyridin-3-yl)methyl)piperidin-4-yl)-1H-benzo[d]imidazol-2(3H)-one (5c)] | 0.00672 | 0.0185 |
| O=c1[nH]c2ccc(C3CCN(Cc4ccc(-c5ccccc5)cc4)CC3)cc2[nH]1 [5-(1-(biphenyl-4-ylmethyl)piperidin-4-yl)-1H-benzo[d]imidazol-2(3H)-one (5a)] | 0.0342 | 0.0962 |
| O=c1[nH]c2ccc(C3CCN(Cc4ccc(-c5ccc(F)cc5)cc4)CC3)cc2[nH]1 [5-(1-((4'-Fluorobiphenyl-4-yl)methyl)piperidin-4-yl)-1H-benzo[d]imidazol-2(3H)-one (5b)] | 0.0162 | 0.0344 |
| O=c1[nH]c2ccc(N3CCN(Cc4cncc(-c5ccccc5)c4)CC3)cc2[nH]1 [5-(4-((5-phenylpyridin-3-yl)methyl)piperazin-1-yl)-1H-benzo[d]imidazol-2(3H)-one (6c)] | 0.0053 | 0.0126 |
| O=c1[nH]c2ccc(N3CCN(Cc4ccc(-c5ccccc5)cc4)CC3)cc2[nH]1 [5-(4-(biphenyl-4-ylmethyl)piperazin-1-yl)-1H-benzo[d]imidazol-2(3H)-one (6a)] | 0.0463 | 0.0422 |
| O=c1[nH]c2ccc(N3CCN(Cc4cncc(-c5ccc(F)cc5)c4)CC3)cc2[nH]1 [5-(4-((5-(4-fluorophenyl)pyridin-3-yl)methyl)piperazin-1-yl)-1H-benzo[d]imidazol-2(3H)-one (6d)] | 0.0114 | 0.082 |
